Assays:
Phosphoglucose isomerase = Phosphoglucose isomerase (Homo sapiens, UniProt P06744); assay: Phosphoglucose isomerase activity under gas; format: biochemical; conditions: for effect: phosphoglucose isomerase; for effect, stressed: stressed = nonoptimal substrate concentration or temperature
Experimental: (§1) Solution preparation: Optimized w/v solutions are prepared by diluting the enzyme (units/ml) and the substrate (μg/ml) in appropriate buffer (optimized pH and molarity for enzymes). The solutions are used for gas experiments at once to avoid loss of activity. Various enzyme and substrate concentrations and inhibitors may be employed. Physical parameters are varied as required.
(§2) Preparation of samples: Cuvets are filled with 2 ml of substrate solution by means of a gas-tight syringe. Gas-tight serum vials are filled with enzyme and solvent. Sufficient gas is consecutively bubbled in the cuvets and serum vials, with a 1-hr wait between injections to maximize equilibration of gas. All syringes and dead spaces are purged before filling with the appropriate gas. The amount of gas used has been measured sufficient to saturate the solution required.
(§3) Spectrophotometric time-drive, reaction rate, and kinetic analyses: cuvets and serum vials are saturated with gas 40 minutes before the run. A gas-filled syringe is used to retrieve 0.5 ml of enzyme solution to avoid air contact. The 0.5 ml syringe injections of enzyme are made simultaneously to effect a common starting time to for the samples. 7 gases (air, O2, N2, Ne, Ar, Kr, Xe) are run at various temperatures each (from 0° to 60° ). Changes in the rate or final equilibrium of the reaction versus ambient air are recorded. Comparison is also made with added oxygen, and with deoxygenation. Some samples are also prepared under pressure.
(§4) In a complete experiment, an enzyme at optimal pH and buffering salt concentration is reacted with 5 substrate concentrations in solution with noble gas at 1 atm. […] Controls are also run after evacuation of solution by vacuum. The reaction is monitored colorimetrically in a scanning spectrophotometer in real time, and the signals are treated mathematically to obtain rate and yield differences. Sample numbers are constant and sufficient to ensure significance of results. All parameters are independently controlled and measured, and more complex experiments are occasionally carried out.

Glucose oxidase = Glucose oxidase (Aspergillus niger, UniProt P13006); assay: Glucose oxidase activity under gas; format: biochemical; conditions: for effect on glucose oxidase: FIG. 28; for effect: minus = inhibition, dependent upon temperature and substrate concentration
Experimental: as §1, §2, §3

Tyrosinase = assay: Gas mixture experiment, tyrosinase; format: biochemical, Mushroom; conditions: inhibition vs. air control, 25° C.
Experimental: In addition to mixes of noble gases with nitrogen and oxygen, and of mixes of Kr and Xe, serial mixes of Ar and either Xe or Kr were tested. Results for tyrosinase expressed as inhibition vs. air control: Apr. 18, 1991: Gas mix prep: 120 cc serum vials were used to mix the gassed in. These vials were purged using vacuum while 1 atm of argon was maintained in the vial. The vials were purged for 20 seconds in this manner. The vials were under slight pressure which was released through a needle. This is considered 120 cc of Argon. The necessary volumes of Argon and the gas to be mixed with (Xe or Kr) were then introduced into the vials using a 30 cc syringe and needle. We gassed the enzyme using 1 vial of gas mix using 8×10 cc of gas out of the vial. We gassed the cuvette/substrate using a second vial of gas mix using 8×10 cc of gas out of the vial. Argon and Xenon were retrieved from the gas cylinders. […] We determined that we would be unable to retrieve 8×10 cc of gas mix from 1 vial. […] We prepared the Ar/Kr mixes as described above and did 2 replicates of the 10% and 50% mixes.

lyase enzymes = assay: Lyases, effects for the class; format: biochemical
Experimental: as §1
as §2, with “All syringes and dead spaces are purged before filling with the appropriate gas.” left out
(§5) Spectrophotometric time-drive, reaction rate, and kinetic analyses: cuvets and serum vials are saturated with gas 40 minutes before the run. […] Changes in the rate or final equilibrium of the reaction versus ambient air are recorded. […]
(§6) In a complete experiment, an enzyme at optimal pH and buffering salt concentration is reacted with 5 substrate concentrations in solution with noble gas at 1 atm. […] The reaction is monitored colorimetrically in a scanning spectrophotometer in real time, and the signals are treated mathematically to obtain rate and yield differences. […]

[1] = test system: Aspartate aminotransferase; assay: Aspartate aminotransferase activity under gas; format: biochemical; conditions: for effect on aspartate aminotransferase: FIG. 30; for effect: minus = inhibition
Experimental: as §1, §2, §3

oxidoreductase enzymes = assay: Oxidoreductases, effects for the class; format: biochemical; conditions: for Maxima for class: effect: Class I oxidoreductases, minus = inhibition
Experimental: as §1, §2, §3, §4

[2] = test system: phenylalanine ammonia lyase; assay: Phenylalanine ammonia lyase activity under gas; format: biochemical; conditions: for effect on phenylalanine ammonia lyase: head not printed; for effect on phenylalanine ammonia-lyase: FIG. 32
Experimental: as §1, §2, §3, §4

[3] = target: Gamma-glutamyl transpeptidase (Homo sapiens, UniProt P19440); assay: Gamma-glutamyl transpeptidase activity under gas; format: biochemical; conditions: for effect on α-glutamyltranspeptidase: FIG. 29; for effect: minus = inhibition
Experimental: as §1, §2, §3, §4

transferase enzymes = assay: Transferases, effects for the class; format: biochemical
Experimental: as §1
as §2, with “All syringes and dead spaces are purged before filling with the appropriate gas.” left out
as §5, §6

hydrolases = assay: Hydrolases, effects for the class; format: biochemical
Experimental: as §1
as §2, with “All syringes and dead spaces are purged before filling with the appropriate gas.” left out
as §5, §6

lactate dehydrogenase = assay: Lactate dehydrogenase activity under gas; format: biochemical; conditions: 10° C., FIG. 42
Experimental: Solution preparation: Optimized w/v solutions are prepared by diluting the enzyme (units/ml) and the substrate (μg/ml) in appropriate buffer (optimized pH and molarity for enzymes). The solutions are used for gas experiments at once to avoid loss of activity. Various enzyme and substrate concentrations and inhibitors may be employed. Physical parameters are varied as required. […] Gas-tight serum vials are filled with enzyme and solvent. Sufficient gas is consecutively bubbled in the cuvets and serum vials, with a 1-hr wait between injections to maximize equilibration of gas. All syringes and dead spaces are purged before filling with the appropriate gas. The amount of gas used has been measured sufficient to saturate the solution required. Spectrophotometric time-drive, reaction rate, and kinetic analyses: cuvets and serum vials are saturated with gas 40 minutes before the run. A gas-filled syringe is used to retrieve 0.5 ml of enzyme solution to avoid air contact. […] Changes in the rate or final equilibrium of the reaction versus ambient air are recorded. Comparison is also made with added oxygen, and with deoxygenation. Some samples are also prepared under pressure.

[4] = optimized enzyme concentration, first value column
[5] = optimized enzyme concentration, second value column
[6] = optimized enzyme concentration, third value column
[7] = suboptimal enzyme concen., first value column
[8] = suboptimal enzyme concen., second value column
[9] = suboptimal enzyme concen., third value column

Glucose oxidase, sequence (P13006 17-605): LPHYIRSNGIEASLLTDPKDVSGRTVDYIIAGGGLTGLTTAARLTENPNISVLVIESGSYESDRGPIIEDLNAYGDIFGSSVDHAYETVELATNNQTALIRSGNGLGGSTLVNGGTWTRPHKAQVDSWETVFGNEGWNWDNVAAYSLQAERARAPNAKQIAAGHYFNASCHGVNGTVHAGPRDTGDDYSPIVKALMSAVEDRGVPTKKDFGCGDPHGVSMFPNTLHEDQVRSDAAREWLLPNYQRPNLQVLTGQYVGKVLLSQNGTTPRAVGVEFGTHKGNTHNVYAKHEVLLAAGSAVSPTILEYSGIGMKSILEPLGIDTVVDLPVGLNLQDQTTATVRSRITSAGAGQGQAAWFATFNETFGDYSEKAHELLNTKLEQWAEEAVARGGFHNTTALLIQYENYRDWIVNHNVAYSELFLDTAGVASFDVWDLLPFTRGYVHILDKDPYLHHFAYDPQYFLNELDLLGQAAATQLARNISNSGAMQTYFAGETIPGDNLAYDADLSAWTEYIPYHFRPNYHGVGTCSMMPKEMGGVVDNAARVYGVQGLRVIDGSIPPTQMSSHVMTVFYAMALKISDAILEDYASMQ
Gamma-glutamyl transpeptidase, sequence (P19440 1-380 limits assumed): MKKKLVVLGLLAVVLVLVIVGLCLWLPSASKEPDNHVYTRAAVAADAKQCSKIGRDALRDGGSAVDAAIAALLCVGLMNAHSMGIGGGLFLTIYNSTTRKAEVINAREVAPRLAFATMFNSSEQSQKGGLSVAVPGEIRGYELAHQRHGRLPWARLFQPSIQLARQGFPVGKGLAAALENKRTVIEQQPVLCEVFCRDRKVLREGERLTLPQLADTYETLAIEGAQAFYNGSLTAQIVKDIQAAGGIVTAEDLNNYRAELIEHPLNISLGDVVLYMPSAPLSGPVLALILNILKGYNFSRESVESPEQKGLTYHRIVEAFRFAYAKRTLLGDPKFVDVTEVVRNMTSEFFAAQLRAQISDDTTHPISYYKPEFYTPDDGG

Structure (SMILES) | effect on phosphoglucose isomerase (Phosphoglucose isomerase; 10° C., FIG. 34) | effect (Phosphoglucose isomerase) | effect on glucose oxidase (Glucose oxidase) | effect (Glucose oxidase) [%] | % inhibited (Tyrosinase; Mix = % Kr in Ar) [%] | % inhibited (Tyrosinase; Mix = % Xe in AR) [%] | effect on lyases (lyase enzymes) | effect on aspartate aminotransferase [1] | effect [1] [%] | effect on oxidoreductase reactions (oxidoreductase enzymes) | Maxima for class: effect (oxidoreductase enzymes) [%] | effect on phenylalanine ammonia lyase [2, 4] | effect on phenylalanine ammonia lyase [2, 5] | effect on phenylalanine ammonia lyase [2, 6] | effect on phenylalanine ammonia lyase [2, 7] | effect on phenylalanine ammonia lyase [2, 8] | effect on phenylalanine ammonia lyase [2, 9] | effect on α-glutamyltranspeptidase [3] | effect [3] [%] | effect on phosphoglucose isomerase (Phosphoglucose isomerase; 25° C., FIG. 35) | other results
[Ar] [Ar, argon] | enhancement | +232.5% | inhibition | -85.8 | -75 | -75 | least such effect | inhibition | -17 | very active at low temperatures | -91 | +6 | +1 | +3 | -1 | +1 | +6.5 | inhibition | -5 | – | –
N#N [N2, nitrogen, reference compound] | – | – | inhibition | – | – | – | – | – | – | – | – | +19 | 0 | +6 | 0 | 0 | +12 | – | – | enhancement | effect on phenylalanine ammonia-lyase [2]: enhancement
[Kr] [Kr, krypton] | enhancement | +206.4% | inhibition | -92.7 | -77 | – | – | inhibition | -82 | somewhat lesser effect than xenon | -91 | +7 | +4 | +4 | +3 | +18 | +14 | inhibition | -8 | – | effect on transferases (transferase enzymes): largest inhibitory or effect; effect on hydrolases (hydrolases): least such effect
[Xe] [Xe, xenon] | enhancement | +186% | inhibition | -91.6 | – | -86 | largest enhancing effect | inhibition | -17 | largest effect on the rate | -95 | +18 | +3 | +5 | +14 | +8 | +11 | inhibition | -7 | – | effect, stressed (Phosphoglucose isomerase): -61%; effect on lactate dehydrogenase (lactate dehydrogenase): enhancing; effect on hydrolases (hydrolases): largest enhancing effect
[Ne] [Ne, neon] | – | +107% | inhibition | -61.7 | – | – | – | – | -12 | – | -85 | -2 | +6 | -6 | +15 | 0 | +6 | – | -3 | enhancement | effect, stressed (Phosphoglucose isomerase): -45%; effect on lactate dehydrogenase (lactate dehydrogenase): inhibiting; effect on phenylalanine ammonia-lyase [2]: enhancement; effect on transferases (transferase enzymes): lowest inhibitory or enhancing effect

Source: patent publication US5462861A, “Method for improving enzyme activities with noble gases” (American Air Liquide, Chicago Research Center, priority 1993, dated 1995)
